From patent publication US20100028849A1, “NOVEL PROCESS FOR DEVITALIZED/ACELLULAR TISSUE FOR TRANSPLANTATION” (priority 2006, published 2010)

Tests used:
[1] = tested on: human skin (epidermis and dermis intact) tissue cells; assay: alamarBlue viability assay of human skin exposed to ozone; format: cell-based; conditions: 60 minutes of ozone exposure in sterile normal saline with agitation; 5-20 ppm, 4 C to 25 C
From the text: This example measured the effect of ozone on human skin. Human skin (epidermis and dermis intact) was exposed to ozone for various lengths of time. Ozone was pumped through an aqueous solution (sterile normal saline) obtaining levels between 5 and 20 ppm at temperatures between 4 C and 25 C. An alamarBlue™ viability assay, which is supplied by Invitrogen Corporation of Carlsbad, Calif., was used to quantify viability of the tissue cells. The alamarBlue™ dye is reduced by metabolic intermediates within a cell; reduction of the dye is then measured spectrophotometrically.
To perform the alamarBlue™ assay, human skin was sectioned into 6 mm diameter discs and placed individually into wells of a 24-well tissue culture plate. To each sample, 10% alamarBlue™ reagent in RPMI-1640 was added. The plate was incubated at 37° C. on an orbital shaker for 4 hours. Each well was then sampled in triplicate to a 96-well assay plate. The absorbance of the plate was measured at 600 nm and 570 nm, where the […]. The absorbencies were then used to calculate the percent reduction of alamarBlue™ dye, as follows: […]

S. epidermidis = assay: antimicrobial ability of ozone in aqueous solution, plating on agar (CFU); format: cell-based; conditions: 5-10 ppm ozone in sterile water; for Final (CFU/mL): initial inoculum 2.1 × 10^8 CFU/mL
Protocol: S. epidermidis was subjected to 5-10 ppm ozone in sterile water, followed by plating the organisms onto agar plates and placing the plates in a 37° C. incubator.

For `O=[O+][O-]` [Ozone, ozone], the “viability of the tissue cells (percent reduction of alamarBlue dye)” value [1] was “death of the cells within the skin”, the “Log Reduction” value (S. epidermidis; 2.5 min exposed to ozone) was 8 log and the “Final (CFU/mL)” value (S. epidermidis; 2.5 min exposed to ozone) was 0 CFU/mL. For the same compound, the “Log Reduction” value (S. epidermidis; 5 min exposed to ozone) was 8 log, the “Final (CFU/mL)” value (S. epidermidis; 5 min exposed to ozone) was 0 CFU/mL and the “Log Reduction” value (S. epidermidis; 7.5 min exposed to ozone) was 8 log. The “Final (CFU/mL)” value (S. epidermidis; 7.5 min exposed to ozone) was 0 CFU/mL, the “Log Reduction” value (S. epidermidis; 10 min exposed to ozone) was 8 log and the “Final (CFU/mL)” value (S. epidermidis; 10 min exposed to ozone) was 0 CFU/mL. The “Log Reduction” value (S. epidermidis; 20 min exposed to ozone) was 8 log, the “Final (CFU/mL)” value (S. epidermidis; 20 min exposed to ozone) was 0 CFU/mL and the “log reduction in colony forming units (CFU)” value (S. epidermidis; at 2.5 minutes or longer, total kill of microbes) was 8 log.
